Data reported in patent US20260083864A1, “CONTRAST AGENTS FOR USE IN DIAGNOSTIC COMPUTED TOMOGRAPHY IMAGING” (Bayer Aktiengesellschaft, priority 2022, published 2026).
Where two headings read alike, the source gives them in different places.

Experiments:
[1] = of the administered dose, literature; cited from earlier work
[2] = Partition coefficient (log P butanol/buffer); format: physicochemical; conditions: 1-butanol / 50 mM Tris-HCl, pH 7.4, room temperature
[3] = Complex stability (transmetallation) against Zn2+ in phosphate buffer; conditions: 72 hours, 2.5 mM Zn^2+, 26 mM phosphate buffer, 37° C., pH 7.4
Source text: If test compounds are instable under these conditions, transmetallation during this test would lead to the formation of the Zn^2+ complex of the test item, while Gd^3+ is released and precipitated as highly insoluble GdPO4.

[4] = Relaxivity measurements at 1.41 T in water; format: physicochemical; conditions: 37° C., normalized to Gd
Procedure, shortened: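 T1 by inversion recovery and T2 by CPMG at 1.41 T (60 MHz), 37° C, relaxation delay ≥5×T1. Three Gd concentrations between 0.05 and 2 mM; relaxivities derived from measured relaxation rates in water.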

OATP1B1 = molecular target: T1, OATP1B1 (Homo sapiens, UniProt Q9Y6L6); experiment: Uptake into stable transfected OATP1B1 HEK 293 cells; format: cell-based; conditions: for Uptake into OATP1B1-HEK 293 cells: 40 min incubation, relative to RC1 (Gd-EOB-DTPA); for Inhibition Rifampicine: uptake into OATP1B1-HEK 293 cells
T1 sequence (Q9Y6L6 1-691): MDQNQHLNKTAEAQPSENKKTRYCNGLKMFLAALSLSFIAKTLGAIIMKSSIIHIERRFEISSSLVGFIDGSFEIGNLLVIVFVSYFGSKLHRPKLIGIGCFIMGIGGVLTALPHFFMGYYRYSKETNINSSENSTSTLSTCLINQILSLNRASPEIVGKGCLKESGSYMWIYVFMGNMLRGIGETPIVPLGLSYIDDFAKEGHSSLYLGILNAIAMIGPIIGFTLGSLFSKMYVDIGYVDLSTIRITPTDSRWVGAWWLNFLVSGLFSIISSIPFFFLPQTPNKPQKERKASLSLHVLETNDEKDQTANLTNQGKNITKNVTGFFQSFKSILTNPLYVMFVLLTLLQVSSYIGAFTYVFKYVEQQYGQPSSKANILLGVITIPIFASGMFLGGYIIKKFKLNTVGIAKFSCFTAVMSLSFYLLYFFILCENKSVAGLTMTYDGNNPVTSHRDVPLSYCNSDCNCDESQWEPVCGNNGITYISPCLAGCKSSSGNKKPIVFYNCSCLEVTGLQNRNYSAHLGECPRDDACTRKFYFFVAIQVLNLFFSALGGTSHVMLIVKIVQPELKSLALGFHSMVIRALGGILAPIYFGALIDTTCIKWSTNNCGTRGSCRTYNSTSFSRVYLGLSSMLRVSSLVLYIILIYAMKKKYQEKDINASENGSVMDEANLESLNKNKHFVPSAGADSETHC
Procedure, shortened: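 Stably transfected OATP1B1 HEK293 cells incubated 40 min without shaking with test item at 100 µM final in transport buffer, in triplicate. Cells then washed with cold PBS; gadoxetate run on the same plate as reference.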

[5] = Relaxivity measurements at 1.41 T in human plasma; format: physicochemical; conditions: 37° C., normalized to Gd
Procedure, shortened: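 T1 determined by inversion recovery (8 inversion-time steps) and T2 by CPMG sequence, both with relaxation delay ≥5×T1. Each relaxivity used three Gd concentrations between 0.05 and 2 mM. Relaxivities were derived from relaxation rates measured in water and plasma.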

OATP1B3 = molecular target: T2, OATP1B3 (Homo sapiens, UniProt Q9NPD5); experiment: Uptake into stable transfected OATP1B3 HEK 293 cells; format: cell-based; conditions: for Uptake into OATP1B3-HEK 293 cells: 40 min incubation, relative to RC1 (Gd-EOB-DTPA); for Inhibition Rifampicine: uptake into OATP1B3-HEK 293 cells
T2 sequence (Q9NPD5 1-702): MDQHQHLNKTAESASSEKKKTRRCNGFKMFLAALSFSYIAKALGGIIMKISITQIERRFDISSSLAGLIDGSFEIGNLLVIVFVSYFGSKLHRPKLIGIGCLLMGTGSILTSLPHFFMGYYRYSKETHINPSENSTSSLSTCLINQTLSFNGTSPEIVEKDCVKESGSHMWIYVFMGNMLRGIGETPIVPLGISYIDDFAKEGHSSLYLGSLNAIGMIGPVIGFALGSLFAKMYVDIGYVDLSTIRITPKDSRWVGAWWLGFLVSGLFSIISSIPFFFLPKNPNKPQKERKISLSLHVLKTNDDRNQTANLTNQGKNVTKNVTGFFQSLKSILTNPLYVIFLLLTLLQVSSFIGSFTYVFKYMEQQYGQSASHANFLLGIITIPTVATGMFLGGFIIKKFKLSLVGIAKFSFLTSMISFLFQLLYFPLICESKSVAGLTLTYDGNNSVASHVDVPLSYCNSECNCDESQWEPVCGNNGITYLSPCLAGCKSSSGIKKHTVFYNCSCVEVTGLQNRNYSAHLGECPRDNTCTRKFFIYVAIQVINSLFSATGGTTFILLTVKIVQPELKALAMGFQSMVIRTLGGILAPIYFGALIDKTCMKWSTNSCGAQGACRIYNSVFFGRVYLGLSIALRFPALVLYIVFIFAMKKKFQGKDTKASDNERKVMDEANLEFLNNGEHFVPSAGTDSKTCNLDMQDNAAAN
Procedure, shortened: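 HEK 293 cells stably transfected with human OATP1B3 were incubated for 40 min with test items at 100 μM final in transport buffer, in triplicate, then washed with cold PBS. Gadoxetate (Gd-EOB-DTPA) served as the reference standard on the same plate.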

[6] = system: freshly isolated rat hepatocytes; experiment: Uptake into freshly isolated rat hepatocytes; conditions: for Uptake rat hepatocytes: 100 μmol Gd/L, 10 min, 37° C., relative to RC1 (Gd-EOB-DTPA); for Inhibition Rifampicine: rat hepatocyte uptake, test item and Rifampicine 1:1, each 100 μM
[7] = Water solubility in aqueous buffer; conditions: aqueous buffer 10 mM Tris-HCl, pH 7.4, 20° C.
Description: The solid compounds were added stepwise to the buffer solution. More substance is added once all the suspended material is dissolved until an equilibrium between undissolved and dissolved substance is reached. The suspension was mixed using a shaker (Heidolph Reax 2000) and treated 5 min in an ultrasound bath (Bandelin, Sonorex Super RK255H).

[8] = reference compounds, 1.5 T, 37° C., bovine plasma instead of human plasma, from Rohrer et al.; cited from earlier work
[9] = reference compounds, 1.5 T, 37° C., from Rohrer et al.; cited from earlier work

Compound | Secreted / excreted into the bile [1] | Log P (partition coefficient butanol/buffer) [2] | Transmetallation stability [3] [%] | r1 water [4] [L/mmol/s] | Uptake into OATP1B1-HEK 293 cells (OATP1B1) | Inhibition Rifampicine (OATP1B1) [% inhibition] | r1 human plasma [5] [L/mmol/s] | Uptake into OATP1B3-HEK 293 cells (OATP1B3) | Inhibition Rifampicine (OATP1B3) [% inhibition] | Uptake rat hepatocytes [6] | Inhibition Rifampicine [6] [% inhibition] | Solubility [7] [mM] | r1 plasma (r1 human plasma) [8] [L/mmol/s] | r1 water [9] [L/mmol/s]
CCOc1ccc(C[C@@H](CN(CCN(CC(=O)[O-])CC(=O)[O-])CC(=O)[O-])N(CC(=O)[O-])CC(=O)[O-])cc1.[Gd+3].[H+].[H+] [Gd-EOB-DTPA, gadoxetic acid] | up to 50% |  |  |  |  |  |  |  |  |  |  |  |  | 
O=C([O-])CN(CCN(CC(=O)[O-])CC(=O)[O-])CCN(CC(=O)[O-])C(COCc1ccccc1)C(=O)[O-].[Gd+3].[H+].[H+] (stereo not drawn) [Gd-BOPTA, gadobenic acid] | 3-to-5% |  |  |  |  |  |  |  |  |  |  |  |  | 
CCOCCOc1ccc(CC(C(=O)O)N2CCN(CC(=O)[O-])CCN(C(CC)C(=O)[O-])CCN(CC(=O)[O-])CC2)cc1.[Gd+3] (single isomer, unassigned) [Example 8, gadolinium 2-[7-{1-carboxy-2-[4-(2-ethoxyethoxy)phenyl]ethyl}-4,10-bis(carboxylatomethyl)-1,4,7,10-tetraazacyclododecan-1-yl]butanoate] |  | −1.04 | 102 | 4.5 | 271 % of RC1 | 90 | 7.2 | 90 % of RC1 | 99 | 83 % of RC1 | 98 | 117 |  | 
CCCCOc1ccc(CCC[C@@H](C(=O)O)N2CCN(CC(=O)[O-])CCN(CC(=O)[O-])CCN(CC(=O)[O-])CC2)cc1.[Gd+3] [Example 31, gadolinium 2,2′,2″-{10-[(1S)-4-(4-butoxyphenyl)-1-carboxybutyl]-1,4,7,10-tetraazacyclododecane-1,4,7-triyl}triacetate] |  | 0.20 | 102 | 4.4 | 1919 % of RC1 | 98 | 15.8 | 194 % of RC1 | 99 | 87 % of RC1 | 94 | >255 |  | 
O=C([O-])CN(CCN(CC(=O)[O-])CC(=O)[O-])CCN(CC(=O)[O-])C(COCc1ccccc1)C(=O)[O-].[Gd+3].[H+].[H+] (stereo not drawn) [RC2, gadobenic acid, reference compound] |  | −2.07 | 14 |  | 31 % of RC1 | 61 |  | 4 % of RC1 | 87 | 9 % of RC1 | 79 |  | 4.1 | 3.3
O=C([O-])CN1CCN(CC(=O)[O-])CCN([C@H](CO)[C@H](O)CO)CCN(CC(=O)[O-])CC1.[Gd+3] (racemic) [RC3, gadobutrol, reference compound] |  | −2.22 |  |  |  |  |  |  |  |  | 0 |  | 5.2 | 3.3
COCC(C(=O)O)N1CCN(CC(=O)[O-])CCN(C(Cc2ccc(OCC(F)(F)C(F)F)cc2)C(=O)[O-])CCN(CC(=O)[O-])CC1.[Gd+3] (stereo not drawn) [Example 45, gadolinium-2-{4,10-bis(carboxylatomethyl)-7-[1-carboxy-2-methoxyethyl]-1,4,7,10-tetraazacyclododecan-1-yl}-3-[4-(2,2,3,3-tetrafluoropropoxy)phenyl]propanoate] |  | −0.36 | 100 | 4.5 | 492 % of RC1 | 95 | 11.4 | 106 % of RC1 | 98 | 68 % of RC1 | 82 | >63 |  | 
O=C([O-])CN1CCN(CC(=O)[O-])CCN(C(Cc2ccc(OCC(F)(F)C(F)F)cc2)C(=O)O)CCN(CC(=O)[O-])CC1.[Gd+3] (stereo not drawn) [Example 46, gadolinium 2,2′,2″-(10-{1-carboxy-2-[4-(2,2,3,3-tetrafluoropropoxy)phenyl]ethyl}-1,4,7,10-tetraazacyclododecane-1,4,7-triyl)triacetate] |  | −0.57 | 101 | 3.5 | 356 % of RC1 | 95 | 10.8 | 43 % of RC1 | 97 | 106 % of RC1 | 90 | >263 |  | 
